Laboratory results taken from US20140107109A1, “AMINO-DIHYDROTHIAZINE AND AMINO-DIOXIDO DIHYDROTHIAZINE COMPOUNDS AS BETA-SECRETASE ANTAGONISTS AND METHODS OF USE” (Amgen Inc., priority 2012, published 2014).
One block for each molecule: values may come before it.

Key:
Aβ in lumbar CSF = settings: Ph I clinical trial; cited from earlier work
[1] = test system: Aβ40 in conditioned medium of cells stably expressing Amyloid Precursor Protein (APP); assay: In vitro BACE cell-based assay (HEK cell assay), Aβ40 sandwich ELISA; settings: Homo sapiens, HEK293; average IC50, cell assay
In short: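 Aβ40 in conditioned medium was quantified by time-resolved fluorescence sandwich ELISA (pAb40 capture 3 h at 4 °C, biotin-6E10 detection 2 h at 4 °C) after 24 h compound exposure of APP-expressing cells. Doses spanned 10 points from 100 μM or 10 μM top, 0.1% DMSO; IC50 was derived from percent of control.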

Cathepsin D (Cat D) = biological target: T1, Cathepsin D (Cat D) (Homo sapiens, UniProt P07339); assay: In vitro enzymatic Cathepsin D (Cat D) FRET assay; format: biochemical; settings: read-out: CatD IC50
T1 construct: Recombinant Cat D was expressed in CHO cells; made in house; host or cells: CHO cells
In short: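 FRET read-out: a fluorophore/quencher-labelled peptide substrate is cleaved by 9 nM Cat D (recombinant, CHO-expressed) following a one-hour preincubation with inhibitor dilutions in DMSO. Tris buffer added to neutralize pH ends the reaction before fluorescence measurement.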

[2] = test system: Abeta 40 in cerebrospinal fluid (CSF) and brain; assay: In vivo inhibition of beta-secretase: Abeta 40 reduction in CSF and brain of the rat; settings: 10 mpk (unless otherwise noted), after 4 hrs
Description: In Vivo Inhibition of Beta-Secretase
Several animal models, including mouse, rat, dog, and monkey, may be used to screen for inhibition of beta-secretase activity in vivo following administration of a test compound sample. Animals used in this invention can be wild type, transgenic, or gene knockout animals. […] One to twenty-four hours following the administration of compound, animals are sacrificed, and brains as well as cerebrospinal fluid (CSF) and plasma are removed for analysis of A-beta levels and drug or test compound concentrations (Dovey et al., 2001, Journal of Neurochemistry, 76, 173-181) Beginning at time 0, animals are administered by oral gavage, or other means of delivery such as intravenous injection, an inhibitory test compound of up to 100 mg/kg in a standard, conventional formulation, such as 2% hydroxypropyl methylcellulose, 1% Tween80. A separate group of animals receive 2% hydroxypropyl methylcellulose, 1% Tween80 alone, containing no test compound, and serve as a vehicle-control group. […] CSF or brain supernatants are then analyzed for the presence of A-beta peptide by specific sandwich ELISA assays based on ECL (Electrochemiluminescence) technology. For example, rat Abeta40 is measured using biotinylated-4G8 (Signet) as a capture antibody and Fab40 (an in-house antibody specific to the C-terminal of Abeta40) as a detection antibody.

[3] = test system: pigment epithelium of the rat's eye; settings: higher compound dose given for three months; cited from earlier work
[4] = people brought in after termination of the Ph I dosing trial; cited from earlier work
[5] = biological target: Beta Secretase enzyme (BACE1) (Homo sapiens, UniProt P56817); assay: In vitro enzymatic BACE FRET assay; format: biochemical; settings: average IC50, enzyme assay; read-out: BACE1 FRET assay IC50
In short: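 Readout: dequenched fluorescence (ex 488 nm/[…]) after neutralizing with Tris buffer. Reactions, begun by adding 50 nM quenched peptide substrate spanning the BACE cleavage site, were incubated one hour at pH 4.2 in 0.05 M acetate with 100 uM genapol and 10% final DMSO.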

T1 sequence (P07339 65-412, species assumed): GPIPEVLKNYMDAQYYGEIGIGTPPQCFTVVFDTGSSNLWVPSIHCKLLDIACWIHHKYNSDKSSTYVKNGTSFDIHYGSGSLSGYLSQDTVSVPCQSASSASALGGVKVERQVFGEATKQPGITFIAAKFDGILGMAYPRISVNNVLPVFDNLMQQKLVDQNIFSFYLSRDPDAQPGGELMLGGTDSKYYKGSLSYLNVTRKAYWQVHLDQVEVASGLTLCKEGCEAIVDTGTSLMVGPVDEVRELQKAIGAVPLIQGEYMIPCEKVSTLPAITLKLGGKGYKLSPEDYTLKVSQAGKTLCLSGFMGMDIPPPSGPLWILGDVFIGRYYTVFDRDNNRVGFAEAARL
Sequence of Beta Secretase enzyme (BACE1) (P56817 46-501): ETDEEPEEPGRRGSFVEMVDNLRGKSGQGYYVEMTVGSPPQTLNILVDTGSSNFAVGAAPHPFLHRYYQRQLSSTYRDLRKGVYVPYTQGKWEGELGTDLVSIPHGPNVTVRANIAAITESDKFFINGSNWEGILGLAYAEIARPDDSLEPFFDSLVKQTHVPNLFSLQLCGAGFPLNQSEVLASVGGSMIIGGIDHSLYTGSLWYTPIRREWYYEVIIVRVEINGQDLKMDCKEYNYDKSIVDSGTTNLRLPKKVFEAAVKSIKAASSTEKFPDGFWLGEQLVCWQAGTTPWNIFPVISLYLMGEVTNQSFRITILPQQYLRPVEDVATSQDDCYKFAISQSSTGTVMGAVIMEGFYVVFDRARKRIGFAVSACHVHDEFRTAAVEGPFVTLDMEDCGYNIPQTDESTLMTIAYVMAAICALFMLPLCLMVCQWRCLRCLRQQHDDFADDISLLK

Compound: C[C@@]1(c2cc(-c3cncnc3)c(F)cc2F)CCSC(N)=N1 [LY2811376, (S)-4-(2,4-difluoro-5-pyrimidin-5-yl-phenyl)-4-methyl-5,6-dihydro-4H-[1,3]thiazin-2-ylamine]
safety and tolerability in healthy volunteers (Aβ in lumbar CSF): safe and well tolerated

IC50 [1]: 11.7 nM | IC50 (Cathepsin D (Cat D)): 144000 nM
Compound: COc1cnc(C(=O)Nc2ccc(F)c([C@]34COC[C@H]3S(=O)(=O)C(C)(C)C(N)=N4)c2)c(C)c1 [Example 430, N-(3-((4aS,7aS)-3-amino-2,2-dimethyl-1,1-dioxido-7,7a-dihydro-2H-furo[3,4-b][1,4]thiazin-4a(5H)-yl)-4-fluorophenyl)-5-methoxy-3-methyl-2-pyridinecarboxamide]
% reduction of rat CSF levels at 10pmk ([2]; rat CSF): 31% | % reduction of rat brain levels at 10mpk ([2]; rat brain): 1%

Compound: C[C@@]1(c2cc(-c3cncnc3)c(F)cc2F)CCSC(N)=N1 [LY 2811376]
rat toxicology finding [3]: damaged the pigment epithelium of the rat's eye | eye assessments of Ph I subjects [4]: did not show any abnormalities

IC50 [5]: 2.47 nM | IC50 [1]: 187 nM | IC50 (Cathepsin D (Cat D)): 312000 nM
Compound: CC1(C)C(N)=N[C@](CF)(c2cc(Nc3ncc(F)c4cc(OCC(F)(F)F)cnc34)ccc2F)CS1(=O)=O [Example 432, N-(3-((3S)-5-amino-3-(fluoromethyl)-6,6-dimethyl-1,1-dioxido-3,6-dihydro-2H-1,4-thiazin-3-yl)-4-fluorophenyl)-5-fluoro-3-(2,2,2-trifluoroethoxy)-1,7-naphthyridin-8-amine]
